These results are taken from patent publication US8906852B2 (MethylGene Inc., priority 2010, dated 2014).

A value given as a limit tells only on which side of the number the result lay.

T1 sequence (P35968 806-1356): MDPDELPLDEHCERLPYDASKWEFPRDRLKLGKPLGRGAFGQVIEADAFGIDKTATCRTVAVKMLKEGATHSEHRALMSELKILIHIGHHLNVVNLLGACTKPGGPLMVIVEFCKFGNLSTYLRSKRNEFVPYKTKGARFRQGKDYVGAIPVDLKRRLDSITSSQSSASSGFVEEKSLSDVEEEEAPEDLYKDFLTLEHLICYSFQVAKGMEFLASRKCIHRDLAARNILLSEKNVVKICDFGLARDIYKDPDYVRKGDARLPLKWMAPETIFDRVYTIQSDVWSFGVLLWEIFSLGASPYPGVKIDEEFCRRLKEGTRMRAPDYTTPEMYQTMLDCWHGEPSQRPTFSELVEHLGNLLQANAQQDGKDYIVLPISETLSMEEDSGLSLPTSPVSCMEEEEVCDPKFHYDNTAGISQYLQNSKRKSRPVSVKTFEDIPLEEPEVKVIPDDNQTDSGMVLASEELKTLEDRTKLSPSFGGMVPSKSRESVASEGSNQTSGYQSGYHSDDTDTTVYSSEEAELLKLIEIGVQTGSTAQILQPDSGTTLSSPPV

This test concerns the target T1, VEGFR/KDR (Homo sapiens, UniProt P35968).
T1 construct: made in house; host or cells: Sf9 cells (Spodoptera frugiperda), baculovirus
Briefly: VEGFR/KDR kinase inhibition, DELFIA assay. The conditions noted are these: ATP 0.6 uM (2x Km), enzyme 5 nM. The test is classed as biochemical. In a few lines: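 Enzyme (5 nM) pre-incubated 4 min on ice with inhibitor and Mg-ATP (0.6 uM, 2× Km), then reacted 10-30 min at 30° C on immobilized poly(Glu4,Tyr). EDTA-quenched phosphotyrosine detected with Europium-labeled antibody by time-resolved fluorescence; IC50 from concentration series.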
The IC50 is the midpoint of a concentration-inhibition curve. A lower IC50 goes with inhibition by little substance. Consider `CN(CCO)C(=O)[C@@H]1CCCN1Cc1ccc(-c2cc3nccc(Oc4ccc(NC(=O)NC5CC5)cc4F)c3s2)nc1` [Compound 486, (S)-1-((6-(7-(4-(3-cyclopropylureido)-2-fluorophenoxy)thieno[3,2-b]pyridin-2-yl)pyridin-3-yl)methyl)-N-(2-hydroxyethyl)-N-methylpyrrolidine-2-carboxamide], for which the IC50 is < 50 nM.

`COCCN(Cc1cnc(-c2cc3nccc(Oc4ccc(NC(=O)NC5CC5)cc4F)c3s2)n1C)C(=O)NC1CC1` [Compound 161, 1-((2-(7-(2-fluoro-4-cyclopropylaminocarbonylaminophenoxy)thieno[3,2-b]pyridin-2-yl)-1-methyl-1H-imidazol-5-yl)methyl)-3-cyclopropyl-1-(2-methoxyethyl)urea]: the IC50 was < 50 nM.

On to `O=C(Nc1ccc(Oc2ccnc3cc(-c4ccc(CN5CCN(CCOCCO)CC5)cn4)sc23)c(F)c1)NC1CC1` [Compound 327], for which the IC50 was < 50 nM.

As to `N[C@H]1CCN(Cc2ccc(-c3cc4nccc(Oc5ccc(NC(=O)NC6CC6)cc5F)c4s3)nc2)C1=O` [Compound 108, (S)-1-(4-(2-(5-((3-amino-2-oxopyrrolidin-1-yl)methyl)pyridin-2-yl)thieno[3,2-b]pyridin-7-yloxy)-3-fluorophenyl)-3-cyclopropylurea], the IC50 is < 50 nM.

Regarding `Cc1cc(NCc2ccc(-c3cc4nccc(Oc5ccc(NC(=O)NC6CC6)cc5F)c4s3)nc2)n[nH]1` [Compound 333, 1-Cyclopropyl-3-(3-fluoro-4-(2-(5-((5-methyl-1H-pyrazol-3-ylamino)methyl)pyridin-2-yl)thieno[3,2-b]pyridin-7-yloxy)phenyl)urea], the IC50 was < 50 nM.

As for `CC(C)(C)OC(=O)NC1CCN(C(=O)Cn2cc(-c3cc4nccc(Oc5ccc(NC(=O)NC6CC6)cc5F)c4s3)nn2)CC1` [Compound 387], the IC50 was < 50 nM.

On to `COC(=O)CCN1CCN(Cc2ccc(-c3cc4nccc(Oc5ccc(NC(=O)NC6CC6)cc5F)c4s3)nc2)CC1` [Compound 507, methyl 3-(4-((6-(7-(4-(3-cyclopropylureido)-2-fluorophenoxy)thieno[3,2-b]pyridin-2-yl)pyridin-3-yl)methyl)piperazin-1-yl)propanoate], for which the IC50 is < 50 nM.

`O=C(Nc1ccc(Oc2ccnc3cc(-c4cn(CCN5CCCC5=O)cn4)sc23)c(F)c1)NC1CC1` [Compound 267, 1-cyclopropyl-3-(3-fluoro-4-(2-(1-(2-(2-oxopyrrolidin-1-yl)ethyl)-1H-imidazol-4-yl)thieno[3,2-b]pyridin-7-yloxy)phenyl)urea]: the IC50 was < 50 nM.

In the case of `COCCN(CCc1ccc(-c2cc3nccc(Oc4ccc(NC(=O)NC5CC5)cc4F)c3s2)nc1)C(=O)CO` [Compound 46, N-(2-(6-(7-(4-(3-cyclopropylureido)-2-fluorophenoxy)thieno[3,2-b]pyridin-2-yl)pyridin-3-yl)ethyl)-2-hydroxy-N-(2-methoxyethyl)-acetamide], the IC50 is < 50 nM.

For `CS(=O)(=O)NC1CCN(Cc2ccc(-c3cc4nccc(Oc5ccc(NC(=O)NC6CC6)cc5F)c4s3)nc2)CC1` [Compound 350], the IC50 is < 50 nM.

For the compound `O=C(Nc1ccc(Oc2ccnc3cc(-c4cn(CC(=O)N5CCOCC5)nn4)sc23)c(F)c1)NC1CC1` [Compound 368], the IC50 is < 50 nM.

The compound `O=C(Nc1ccc(Oc2ccnc3cc(C(=O)N4CCC(C(=O)O)CC4)sc23)c(F)c1)NC1CC1` [Compound 465, 1-(7-(4-(3-cyclopropylureido)-2-fluorophenoxy)thieno[3,2-b]pyridine-2-carbonyl)piperidine-4-carboxylic acid] displayed an IC50 of 50 to 100 nM.

Regarding `C[C@@H]1CN(Cc2ccc(-c3cc4nccc(Oc5ccc(NC(=O)NC6CC6)cc5F)c4s3)nc2)C[C@H](C)N1` [Compound 530, 1-cyclopropyl-3-(4-(2-(5-(((3S,5R)-3,5-dimethylpiperazin-1-yl)methyl)pyridin-2-yl)thieno[3,2-b]-pyridin-7-yloxy)-3-fluorophenyl)urea], the IC50 was < 50 nM.
